{"source": "patent US9650616B2", "about": "“Methods for increasing grain yield” (University of Florida Research Foundation, Inc., priority 2014, dated 2017)", "key": {"[1]": {"molecular_target": "T1, maize endosperm AGPase, wild type (Bt2/Sh2) (Zea mays, UniProt P55241+Q84PF5)", "T1 sequence (P55241 46-516)": "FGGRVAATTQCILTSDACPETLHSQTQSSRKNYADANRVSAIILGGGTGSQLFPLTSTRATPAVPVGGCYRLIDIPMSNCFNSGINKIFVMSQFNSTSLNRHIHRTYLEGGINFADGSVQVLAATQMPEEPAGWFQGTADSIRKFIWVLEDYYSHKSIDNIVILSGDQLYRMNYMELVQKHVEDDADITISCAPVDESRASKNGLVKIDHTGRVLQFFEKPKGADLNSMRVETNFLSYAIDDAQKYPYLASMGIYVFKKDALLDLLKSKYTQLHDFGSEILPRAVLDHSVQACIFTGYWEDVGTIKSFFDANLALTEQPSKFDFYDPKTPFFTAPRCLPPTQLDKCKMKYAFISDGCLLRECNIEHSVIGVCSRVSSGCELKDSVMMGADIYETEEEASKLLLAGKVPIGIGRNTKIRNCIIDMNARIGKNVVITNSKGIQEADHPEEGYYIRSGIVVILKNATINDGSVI", "T1 sequence (Q84PF5 1-474)": "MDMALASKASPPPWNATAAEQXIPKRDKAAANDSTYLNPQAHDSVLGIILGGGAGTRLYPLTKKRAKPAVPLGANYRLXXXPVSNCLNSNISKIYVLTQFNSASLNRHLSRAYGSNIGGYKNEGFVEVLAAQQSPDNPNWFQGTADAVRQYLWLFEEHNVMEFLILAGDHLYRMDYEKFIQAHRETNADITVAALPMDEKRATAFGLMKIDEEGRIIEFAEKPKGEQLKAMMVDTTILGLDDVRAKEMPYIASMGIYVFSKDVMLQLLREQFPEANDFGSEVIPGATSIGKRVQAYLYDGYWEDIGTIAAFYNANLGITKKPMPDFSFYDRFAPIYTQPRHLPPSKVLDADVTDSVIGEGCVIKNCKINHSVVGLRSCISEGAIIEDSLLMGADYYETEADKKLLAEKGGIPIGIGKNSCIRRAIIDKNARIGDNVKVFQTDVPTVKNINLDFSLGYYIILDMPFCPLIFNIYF", "experiment": "Apparent kinetic constants with 3-PGA, 37° C., wild type", "format": "biochemical", "settings": "read-out: ATP Km, Wt"}, "[2]": {"molecular_target": "T2, maize endosperm AGPase, large subunit variant RG (Q96R, D161G; numbering of SEQ ID NO: 20) (Zea mays, UniProt P55241+Q84PF5, D161G/Q96R)", "T2 sequence (P55241 46-516 D161G/Q96R)": "T1 sequence (P55241 46-516) with Q51R, D116G", "T2 sequence (Q84PF5 1-474)": "T1 sequence (Q84PF5 1-474)", "experiment": "Apparent kinetic constants with 3-PGA, 37° C., RG", "format": "biochemical", "settings": "read-out: ATP Km", "source_text": "The small and large subunit plasmids of maize endosperm AGPase (pMONcBt2 and pMONcSh2, respectively) (Giroux et al., 1996) were expressed in E. coli AC70R1-504 cells (Iglesias et al., 1993) as previously described (Boehlein et al., 2008).\nAn endpoint assay was used to determine the rate of the AGPase reaction by coupling the formation of PPi to a decrease in NADH concentration (Boehlein et al., 2008). […] The Michaelis constants (Km) were obtained by varying one substrate in the presence of saturating concentrations of the second substrate. The activation constants were obtained by varying the activator at fixed levels of both substrates. All reactions were performed at 37° C. and mixes were prewarmed before starting the reaction with enzyme. […] The absorbance at 340 nm was monitored after 30 min and the amount of PPi produced was determined from a standard curve using PPi in complete reaction mixtures lacking AGPase. Blank samples contained complete reaction mixtures without enzyme and the change in absorbance between the blank and the reaction was used to calculate the amount of PPi produced. […]\nThe apparent Michaelis constant and maximum velocity of each reaction was calculated from a V vs. S plots using nonlinear regression analysis and the following equation, v=VmaxS/(Km+S), where v is the measured velocity, Vmax is the maximum velocity, S is the substrate concentration. […]"}, "[3]": {"system": "maize endosperm AGPase, wild type", "settings": "cited from earlier work"}, "[4]": {"molecular_target": "T3, maize endosperm AGPase, evolutionary mutant SH2-E (Zea mays, UniProt P55241+Q84PF5)", "T3 construct": "data of Boehlein et al., 2013", "T3 sequence (P55241 46-516, change not shown, one chain of several)": "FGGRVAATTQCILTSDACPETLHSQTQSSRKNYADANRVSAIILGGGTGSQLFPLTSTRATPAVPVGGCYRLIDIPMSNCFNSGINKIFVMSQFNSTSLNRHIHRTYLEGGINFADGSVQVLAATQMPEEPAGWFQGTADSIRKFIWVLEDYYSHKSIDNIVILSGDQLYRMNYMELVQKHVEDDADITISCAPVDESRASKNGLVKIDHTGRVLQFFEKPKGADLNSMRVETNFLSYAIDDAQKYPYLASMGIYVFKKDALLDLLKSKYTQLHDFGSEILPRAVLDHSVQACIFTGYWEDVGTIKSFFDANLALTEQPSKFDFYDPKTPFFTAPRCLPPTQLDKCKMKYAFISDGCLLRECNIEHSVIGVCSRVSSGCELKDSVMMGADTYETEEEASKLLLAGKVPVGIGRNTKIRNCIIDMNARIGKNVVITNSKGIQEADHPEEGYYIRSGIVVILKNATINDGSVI", "settings": "cited from earlier work"}}, "note": "Numbering of substitutions follows the chain as printed. Where two headings read alike, the source gives them in different places."}
{"smiles": "Nc1ncnc2c1ncn2[C@@H]1O[C@H](COP(=O)(O)OP(=O)(O)OP(=O)(O)O)[C@@H](O)[C@H]1O", "note": "[ATP]", "values": [{"measurement": "Km", "setting": "[1]", "value": 69, "unit": "µM"}, {"measurement": "Km", "setting": "[2]", "value": 63, "unit": "µM"}, {"measurement": "Km", "setting": "[3]; Maize wt, absence of 3-PGA, ATP varied, Pi inhibition, P-MT, read-out: Km (ATP)", "value": 20400, "unit": "µM"}, {"measurement": "Km", "setting": "[3]; wt maize AGPase, absence of activator, Pi inhibition assay, read-out: Km for both substrates", "value": "> 20000", "unit": "µM"}, {"measurement": "kcat", "setting": "[4]; absence of 3-PGA", "value": 67.6, "unit": "s⁻¹"}, {"measurement": "Km", "setting": "[4]; read-out: ATP Km, absence of 3-PGA", "value": 2530, "unit": "µM"}, {"measurement": "Kd", "setting": "[4]; read-out: Kia (dissociation constant for the E-ATP complex), absence of 3-PGA", "value": 5.4, "unit": "mM"}]}
